Measured values: ChEMBL document CHEMBL4052713, “Bioactivity-guided isolation of chemical constituents against H2O2-induced neurotoxicity on PC12 from Cimicifuga dahurica (Turcz.) Maxim” (Bioorg Med Chem Lett, 2017)
Calls of active or inactive are those of the source. The rule behind the calls is not given here.

What follows are compounds tested on PC-12 (assay: Neuroprotective activity in rat PC12 cells assessed as reduction in H2O2-induced cytotoxicity at 1 to 10 uM pre-incubated for 24 hrs followed by H2O2 exposure for 24 hrs by MTT assay).
Type: functional, cell-based
`CCOC(=O)[C@](O)(Cc1ccc(O)cc1)[C@@H](O)C(=O)O` was tested, and the Activity was “Active”. In the case of `CCOC(=O)[C@H](O)[C@@](O)(Cc1ccc(O)cc1)C(=O)O`, the Activity is reported as “Active”. With `CCOC(=O)[C@@H](OC(=O)/C=C/c1ccc(O[C@@H]2O[C@H](CO)[C@@H](O)[C@@H](O)[C@H]2O)c(OC)c1)[C@@](O)(Cc1ccc(O)cc1)C(=O)O` the Activity was “Active”.
